Source: EP0986401B1, “P-SELECTIN TRANSLOCATION TO VASCULAR EPITHELIAL LUMEN BY IONIZING RADIATION” (ARCH DEVELOPMENT CORPORATION, priority 1997, dated 1998)
Entries after “also recorded” stand apart in the source; their conditions may differ. Structures can show the parent of a compound that is named as a salt. Where two headings read alike, the source gives them in different places. Starred links: 1 amine or outer side, 2 acyl side, 3 side chain; linkers in the order of their positions; H or OH if unused. Positions of bridges follow the written chain, without caps; N, C: chain ends. Non-standard residues stand in square brackets, D forms with d. Residues, ends and D or L forms follow the SMILES beside them. Chains are numbered I, II in the order given. Actinocin(9to1) = Cc1c2oc3c(C)ccc(C(=O)[*:1])c3nc-2c(C(=O)[*:2])c(N)c1=O; NMeV = CN[C@H](C(=O)O)C(C)C; Nle = CCCC[C@H](N)C(=O)O; Sar = CNCC(=O)O

Key:
[1] = system: selectin; conditions: cited from earlier work; for block selectin binding to sLe^x: in vitro
[2] = system: ICAM-1; assay: X-ray induction of ICAM-1 expression with enzyme inhibitors; format: cell-based, human; conditions: inhibitor added prior to irradiation
Source text: (§1) The initial step in discerning the potential role of various signal transduction pathways is to add enzyme inhibitors prior to x-radiation. Exocytosis of Weibel-Palade bodies is an active process requiring the translocation of cytoplasmic granules. Previous studies have shown that intracellular signal transduction required for Weibel Palade body translocation involves influx of calcium and protein kinase C activation (calcium, PKC). To determine whether these signaling pathways participate in radiation-mediated Weibel-Palade body exocytosis, the inventors added the intracellular calcium chelator BAPTA and the protein kinase C inhibitor, calphostin, to HUVEC cells prior to irradiation. Cells were then treated with 10 Gy and immunofluorescence was used to localize P-selectin. […] Conversely, the tyrosin kinase inhibitor, herbimycin A, had no effect on Weibel-Palade exocytosis. To determine whether calcium chelation and protein kinase inhibition prevent all molecular responses to ionizing radiation, the inventors' added BAPTA and calphostin prior to radiation-induction of ICAM-1 expression. BAPTA and calphostin had no effect on x-ray induction of ICAM-1. However, herbimycin A and the NFkB inhibitor ALLN attenuated x-ray induction of ICAM-1.

[3] = system: HL60 cells; assay: HL60 leukocyte adhesion to irradiated HUVECs; format: cell-based, human; conditions: 1 mM each; added 4 h after 10 Gy and 30 min prior to HL60 cells
Protocol: Human leukemia cell line HL60 has been used to quantify leukocyte adhesion to endothelial cells (Jones et al., 1995). HL60 cells were added to human umbilical vein in endothelial cells (HUVECs) after exposure to 10 Gy or cells treated with otherwise identical conditions without irradiation. Cultures were washed and cells were counted using a hemocytometer. […] Each agent blocked the adherence of HL60 cells to irradiated HUVECs.

[4] = rats, orally; Akao et al. (1994); cited from earlier work
[5] = Narasinga Rao et al. (1994); cited from earlier work
[6] = system: ICAM-1; conditions: Hallahan et al., 1995, 1996; cited from earlier work
[7] = system: E-selectin; conditions: Hallahan et al., 1995, 1996; cited from earlier work
[8] = molecular target: T1, E-selectin (Homo sapiens, UniProt P16581); conditions: Nelson et al. (1993); cited from earlier work
T1 sequence (P16581 22-610): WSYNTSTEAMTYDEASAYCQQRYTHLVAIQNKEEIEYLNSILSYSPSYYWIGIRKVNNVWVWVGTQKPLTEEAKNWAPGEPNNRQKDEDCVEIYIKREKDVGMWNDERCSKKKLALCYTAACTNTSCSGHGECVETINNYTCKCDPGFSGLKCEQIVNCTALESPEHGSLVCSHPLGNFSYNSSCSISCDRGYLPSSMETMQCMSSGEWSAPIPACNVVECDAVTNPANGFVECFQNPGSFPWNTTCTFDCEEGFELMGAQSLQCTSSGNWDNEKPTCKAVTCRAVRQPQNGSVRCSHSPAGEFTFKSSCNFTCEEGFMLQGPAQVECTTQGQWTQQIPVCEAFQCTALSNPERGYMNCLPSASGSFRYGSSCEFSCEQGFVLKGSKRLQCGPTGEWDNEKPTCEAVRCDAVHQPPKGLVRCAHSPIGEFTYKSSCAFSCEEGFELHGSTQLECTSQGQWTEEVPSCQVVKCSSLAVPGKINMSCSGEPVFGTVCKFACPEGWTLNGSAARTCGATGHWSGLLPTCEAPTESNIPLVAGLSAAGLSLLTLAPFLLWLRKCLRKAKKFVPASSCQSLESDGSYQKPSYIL

[9] = system: vWF; conditions: disruption of microtubules; cited from earlier work
[10] = system: P-selectin; assay: P-selectin translocation in irradiated HUVEC with microtubule or actin agents, confocal immunofluorescence; format: cell-based, human; conditions: for x-ray induced translocation of P-selectin: HUVEC pretreated 45 min, staining 60 minutes after x-irradiation (2 Gy); for 8-fold increase in P-selectin immunofluorescence on the cell surface: x-irradiated (2 Gy) HUVEC, confocal microscopy quantified by NIH Image, FIG. 2
[11] = system: P-selectin; assay: P-selectin translocation (Weibel-Palade body exocytosis) in irradiated HUVEC with enzyme inhibitors, immunofluorescence; format: cell-based, human; conditions: inhibitor added prior to irradiation, 10 Gy
Source text: as §1

Molecule: CC1(C)[C@@H](O)CC[C@]2(C)[C@H]3C(=O)C=C4[C@@H]5C[C@@](C)(C(=O)O)CC[C@]5(C)CC[C@@]4(C)[C@]3(C)CC[C@@H]12 [18-β-glycyrrhetinic acid]
- IC50 ([1]; Narasinga-Rao et al. (1994), read-out: IC50 blocking selectin activity): > 2000 µM

Molecule: CCCC[C@@H](C=O)NC(=O)[C@H](CC(C)C)NC(=O)[C@H](CC(C)C)NC(C)=O [ALLN] (Ac-Leu-Leu-[Nle]-aldehyde)
- x-ray induction of ICAM-1 [2]: attenuated

Molecule: CC1(C)[C@@H](O[C@H]2O[C@H](C(=O)O)[C@@H](O)[C@H](O)[C@H]2O[C@@H]2O[C@H](C(=O)O)[C@@H](O)[C@H](O)[C@H]2O)CC[C@]2(C)[C@H]3C(=O)C=C4[C@@H]5C[C@@](C)(C(=O)O)CC[C@]5(C)CC[C@@]4(C)[C@]3(C)CC[C@@H]12 [Glycyrrhizin]
- adherence of HL60 cells to irradiated HUVECs [3]: blocked
- absorption from the gut [4]: poorly absorbed
- block selectin binding to sLe^x ([1]; Narasinga Rao et al. (1994)): block
- block selectin binding to sLe^x ([1]; Narasinga Rao et al. (1994), listed as glycyrrhizin): blocked

Molecule: CC1OC(OC2CCC3(C)C(CCC4(C)C3C(=O)C=C3C5CC(C)(C(=O)O)CCC5(C)CCC34C)C2(C)C)C(O)C(O)C1O [L-fucose derivative]
- in vivo efficacy (anti-inflammatory activity) [5]: most active
- selectin inhibition activity in vitro ([1]; sugars substituted for the glucuronic acids of glycyrrhizin, Narasinga Rao et al. (1994)): most active

Molecule: CC(C)C[C@H](NP(=O)(O)O[C@@H]1O[C@@H](C)[C@H](O)[C@@H](O)[C@H]1O)C(=O)N[C@@H](Cc1c[nH]c2ccccc12)C(=O)[O-].CC(C)C[C@H](NP(=O)(O)O[C@@H]1O[C@@H](C)[C@H](O)[C@@H](O)[C@H]1O)C(=O)N[C@@H](Cc1c[nH]c2ccccc12)C(=O)[O-].[Na+].[Na+] [N-(α-Rhamnopyranosyloxy hydroxyphosphonyl)- Leu-Trp]
- block selectin binding to sLe^x ([1]; Narasinga Rao et al. (1994)): effective

Molecule: Cc1c2oc3c(C)ccc(C(=O)N[C@@H]4C(=O)N[C@H](C(C)C)C(=O)N5CCC[C@H]5C(=O)N(C)CC(=O)N(C)[C@@H](C(C)C)C(=O)O[C@@H]4C)c3nc-2c(C(=O)N[C@@H]2C(=O)N[C@H](C(C)C)C(=O)N3CCC[C@H]3C(=O)N(C)CC(=O)N(C)[C@@H](C(C)C)C(=O)O[C@@H]2C)c(N)c1=O [actinomycin D] (I: T[dV]P[Sar][NMeV] / II: T[dV]P[Sar][NMeV]; ester I:1-I:C, II:1-II:C; linker I:N-II:N via Actinocin(9to1))
- radiation-mediated increase in ICAM-1 mRNA expression [6]: blocked
- radiation-mediated increase in E-selectin mRNA expression [7]: blocked

Molecule: COC(=O)CCCCCCCCO[C@@H]1O[C@H](CO)[C@@H](O[C@@H]2O[C@@H](C)[C@@H](O)[C@@H](O)[C@@H]2O)[C@H](O[C@@H]2O[C@H](CO)[C@H](O)[C@H](O[C@]3(C(=O)O)C[C@H](O)[C@@H](NC(C)=O)[C@H]([C@H](O)[C@H](O)CO)O3)[C@H]2O)[C@H]1N [amino substituted sLe^a]
- IC50 [8]: 21 ± 3 µM
- more active than the reducing tetrasaccharide sLe^x [8]: 36 fold

Molecule: Cc1c(C(=O)O)c(O)cc2c1C(=O)c1c(O)c([C@H]3O[C@H](CO)[C@@H](O)[C@H](O)[C@H]3O)c(O)c(O)c1C2=O [carmine]
- block selectin binding to sLe^x ([1]; Narasinga Rao et al. (1994)): effective

Molecule: Cc1c(C(=O)O)c(O)cc2c1C(=O)c1c(O)c([C@@H]3O[C@H](CO)[C@@H](O)[C@H](O)[C@H]3O)c(O)c(O)c1C2=O [carminic acid]
- adherence of HL60 cells to irradiated HUVECs [3]: blocked
- block selectin binding to sLe^x ([1]; Narasinga Rao et al. (1994)): blocked selectin binding at concentrations comparable to those of glycyrrhizin

Molecule: COc1cc2c(c(OC)c1OC)-c1ccc(OC)c(=O)cc1[C@@H](NC(C)=O)CC2 [colchicine]
- vWF secretion from thrombin-treated endothelial cells [9]: attenuates

Molecule: C=C1[C@@H](C)[C@H]2[C@H](Cc3ccccc3)NC(=O)[C@]23OC(=O)/C=C/[C@H](O)CCC[C@@H](C)C/C=C/[C@H]3[C@@H]1O [cytochalasin-B]
- x-ray induced translocation of P-selectin [10]: no inhibition
- 8-fold increase in P-selectin immunofluorescence on the cell surface [10]: not

Molecule: CC1(C)[C@@H](O[C@H]2O[C@H](C(=O)O)[C@@H](O)[C@H](O)[C@H]2O[C@@H]2O[C@H](C(=O)O)[C@@H](O)[C@H](O)[C@H]2O)CC[C@]2(C)[C@H]3C(=O)C=C4[C@@H]5C[C@@](C)(C(=O)O)CC[C@]5(C)CC[C@@]4(C)[C@]3(C)CC[C@@H]12 [glycyrrhizic acid (NH^+4), glycyrrhizic acid]
- block selectin binding to sLe^x ([1]; Narasinga Rao et al. (1994)): blocked

Molecule: CO[C@H]1[C@@H](OC)C[C@H](C)[C@@H](OC)C2=CC(=O)C=C(NC(=O)/C(C)=C/C=C\[C@H](OC)[C@@H](OC(N)=O)/C(C)=C/[C@@H]1C)C2=O [herbimycin A]
- P-selectin translocation to the cell membrane (Weibel-Palade exocytosis) [11]: no effect
- x-ray induction of ICAM-1 [2]: attenuated

Molecule: C[C@H]1O[C@H](OC2[C@@H](O)[C@@H](O)C(O)[C@H](O)[C@H]2O)[C@@H](N)C[C@@H]1N=C(N)C(=O)O.Cl (some centres unmarked) [kasugamycin hydrochloride]
- block selectin binding to sLe^x ([1]; Narasinga Rao et al. (1994)): effective

Molecule: C[C@H]1O[C@H](O[C@H]2[C@H](O)[C@@H](O)[C@@H](O)[C@H](O)[C@@H]2O)[C@@H](N)C[C@@H]1NC(=N)C(=O)O [kasugamycin]
- block selectin binding to sLe^x ([1]; Narasinga Rao et al. (1994)): effective

Molecule: CC(=O)Nc1c(I)c(NC(C)=O)c(I)c(C(=O)O)c1I.CNC[C@H](O)[C@@H](O)[C@H](O)[C@H](O)CO [meglumine diatrizoate]
- block selectin binding to sLe^x ([1]; Narasinga Rao et al. (1994)): effective

Molecule: CC(=O)Nc1c(I)c(C(=O)O)c(I)c(N(C)C(C)=O)c1I [metrizoic acid (meglumine salt), metrizoic acid]
- block selectin binding to sLe^x ([1]; Narasinga Rao et al. (1994)): effective

Molecule: COC(=O)Nc1nc2cc(C(=O)c3cccs3)ccc2[nH]1 [nocodozol]
- x-ray induced translocation of P-selectin [10]: inhibited
- 8-fold increase in P-selectin immunofluorescence on the cell surface [10]: abrogated

Molecule: O=C(O)c1cc(O)c2c(c1)C(=O)c1cccc(O[C@@H]3O[C@H](CO)[C@@H](O)[C@H](O)[C@H]3O)c1C2=O [rhein-8-glucoside]
- block selectin binding to sLe^x ([1]; Narasinga Rao et al. (1994)): effective

Molecule: O=C(O)[C@H]1O[C@H](O[C@@H]2[C@H](O)[C@@H](O)[C@@H](O[C@@H]3[C@H](O)[C@@H](O)C(O)O[C@@H]3C(=O)O)O[C@@H]2C(=O)O)[C@H](O)[C@@H](O)[C@H]1O (some centres unmarked) [trigalacturonic acid]
- block selectin binding to sLe^x ([1]; Narasinga Rao et al. (1994)): effective

Molecule: C[C@@H]1O[C@@H](O[C@H]2[C@H](O[C@H]3CC[C@@]4(C)[C@@H](CC[C@]5(C)[C@@H]4CC=C4[C@@H]6CC(C)(C)CC[C@]6(C(=O)O)CC[C@]45C)[C@]3(C)CO)OC[C@H](O)[C@@H]2O)[C@H](O)[C@H](O)[C@H]1O [α-Hederin]
- inhibiting concentrations ([1]; selectin binding to sLe^x, Narasinga Rao et al. (1994)): 2 to 3 mM

Molecule: Neu5Acα2-3Galβ1-4 [Fucα1-3]GlcNAc [sialyl Lewis X]
- adherence of HL60 cells to irradiated HUVECs [3]: blocked

Molecule: [ring-^14C]Chlorhexidine
- block selectin binding to sLe^x ([1]; Narasinga Rao et al. (1994)): effective

Molecule: calphostin
- P-selectin translocation to the cell membrane (Weibel-Palade exocytosis) [11]: attenuation; also recorded: attenuates
- x-ray induction of ICAM-1 [2]: no effect

Molecule: carmine ammonia
- block selectin binding to sLe^x ([1]; Narasinga Rao et al. (1994)): effective

Molecule: escin
- block selectin binding to sLe^x ([1]; Narasinga Rao et al. (1994)): effective

Molecule: picrocarmine
- block selectin binding to sLe^x ([1]; Narasinga Rao et al. (1994)): effective
